Test results from US9586965B2, “Pyrrolo[2,3-d]pyrimidine compounds as inhibitors of protein kinases” (ACEA BIOSCIENCES INC., priority 2012, dated 2017).
Several values for one entry are separate records, joined by “and”; a condition that tells them apart may be missing. Equal entries are not always repeated. Where two headings read alike, the source gives them in different places.

Assays:
[1] = biological target: EGFR (pY1068) in H1975 cell (T790M/L858R) (Homo sapiens (Human), UniProt P00533, L858R/T790M); test: pEGFR sandwich ELISA assay (Examples B-2, B-3, Table 21); format: cell-based; details: for IC50: read-out: IC50 (uM) H1975 T790M/L858R (no EGF stimulation)
[2] = biological target: EGFR (pY1068) in A431 cell (WT) (Homo sapiens (Human), UniProt P00533); test: as above; format: cell-based; details: read-out: IC50 (uM) A431 WT (EGF stimulation)
[3] = tested on: A431 (WT) human skin epidermoid carcinoma xenograft; details: for Tumor volume: 100 mpk PO QD
Experimental: Each mouse was inoculated subcutaneously at the right flank with H1975 cells (5×10^6), HCC827 (5×10^6) and A431 (5×10^6) respectively in 0.2 ml of medium for tumor development. The treatments were started when the tumor size reached approximately 200-250 mm^3. The testing articles were administrated to the mice according to the predetermined regimen as shown in the experimental design table.
All the procedures related to animal handling, care and the treatment in this study were performed according to the guidelines approved by the Institutional Animal Care and Use Committee (IACUC) following the guidance of the Association for Assessment and Accreditation of Laboratory Animal Care (AAALAC). At the time of routine monitoring, the animals were checked for any effects of tumor growth and treatments on normal behavior such as mobility, food and water consumption (by observation), body weight gain/loss (body weights were measured twice weekly), eye/hair matting and any other abnormal effect. Death and observed clinical signs were recorded on the basis of the numbers of animals within each subset.
The major endpoint was to see if the tumor growth can be delayed or mice can be cured. Tumor size was measured twice weekly in two dimensions using a caliper, and the volume was expressed in mm^3 using the formula: V=0.5 a×b^2 where a and b are the long and short diameters of the tumor, respectively. The tumor size was then used for calculations of both T-C and T/C values. T-C was calculated with T as the median time (in days) required for the treatment group tumors to reach a predetermined size (e.g., 1,000 mm^3), and C as the median time (in days) for the control group tumors to reach the same size. The T/C value (in percent) was an indication of antitumor effectiveness; T and C were the mean volume of the treated and control groups, respectively, on a given day. Tumor weight was measured at the study termination. The T/C value (in percent) was calculated where T and C were the mean tumor weights of the treated and control groups, respectively.

BTK = BTK (Homo sapiens (Human), UniProt Q06187); test: HotSpot kinase assay; format: biochemical; details: Enzymatic Assays; Table 22; unit inferred
Experimental: (§1) Assay Description. In vitro profiling protein kinases was performed using the “HotSpot” assay platform. Briefly, specific kinase/substrate pairs along with required cofactors were prepared in reaction buffer. Compounds were delivered into the reaction, followed 15-20 minutes later by addition of a mixture of ATP (Sigma, St. Louis Mo.) and ^33P ATP (Perkin Elmer, Waltham Mass.) to a final concentration of 10 μM. […] IC50 values and curve fits were obtained using Prism (GraphPad Software).
(§2) Reaction Conditions: Buffer Conditions: 20 mM Hepes (pH 7.5), 10 mM MgCl2, 1 mM EGTA, 0.02% Brij35, 0.02 mg/mL BSA, 0.1 mM Na3VO4, 2 mM DTT, and 1% DMSO. ATP concentration: 10 μM. Reaction Time: 2 hours. […] All kinase reactions were performed at 10 uM ATP. Test concentrations are provided below in molar units (M).

JAK2 = JAK2 (Homo sapiens (Human), UniProt O60674); test: HotSpot kinase assay; format: biochemical; details: Enzymatic Assays; Table 22; unit inferred
Experimental: as §1, §2

JAK3 = JAK3 (Homo sapiens (Human), UniProt P52333); test: HotSpot kinase assay; format: biochemical; details: Enzymatic Assays; Table 22; unit inferred
Experimental: as §1, §2

human wt BTK = human wt BTK (Homo sapiens (Human), UniProt Q06187); test: ClariCELL BTK cell-based assay; details: Cell-based Assays (CAI) IC50(μM) BTK, HEK293 transfected with human wt BTK; 2 hours; repeat runs
Text: (§3) Protocol for ClariCELL™ JAK3 and BTK Assays is described below: • HEK293 human embryonic kidney cells were transiently transfected with either human wt BTK, human wt JAK3, or kinase-dead human JAK3 (for JAK3 negative controls).

human wt JAK3 = human wt JAK3 (Homo sapiens (Human), UniProt P52333); test: ClariCELL JAK3 cell-based assay; details: Cell-based Assays (CAI) IC50(μM) JAK3, HEK293 transfected with human wt JAK3; 2 hours; repeat runs
human wt JAK3, sequence (P52333 whole entry): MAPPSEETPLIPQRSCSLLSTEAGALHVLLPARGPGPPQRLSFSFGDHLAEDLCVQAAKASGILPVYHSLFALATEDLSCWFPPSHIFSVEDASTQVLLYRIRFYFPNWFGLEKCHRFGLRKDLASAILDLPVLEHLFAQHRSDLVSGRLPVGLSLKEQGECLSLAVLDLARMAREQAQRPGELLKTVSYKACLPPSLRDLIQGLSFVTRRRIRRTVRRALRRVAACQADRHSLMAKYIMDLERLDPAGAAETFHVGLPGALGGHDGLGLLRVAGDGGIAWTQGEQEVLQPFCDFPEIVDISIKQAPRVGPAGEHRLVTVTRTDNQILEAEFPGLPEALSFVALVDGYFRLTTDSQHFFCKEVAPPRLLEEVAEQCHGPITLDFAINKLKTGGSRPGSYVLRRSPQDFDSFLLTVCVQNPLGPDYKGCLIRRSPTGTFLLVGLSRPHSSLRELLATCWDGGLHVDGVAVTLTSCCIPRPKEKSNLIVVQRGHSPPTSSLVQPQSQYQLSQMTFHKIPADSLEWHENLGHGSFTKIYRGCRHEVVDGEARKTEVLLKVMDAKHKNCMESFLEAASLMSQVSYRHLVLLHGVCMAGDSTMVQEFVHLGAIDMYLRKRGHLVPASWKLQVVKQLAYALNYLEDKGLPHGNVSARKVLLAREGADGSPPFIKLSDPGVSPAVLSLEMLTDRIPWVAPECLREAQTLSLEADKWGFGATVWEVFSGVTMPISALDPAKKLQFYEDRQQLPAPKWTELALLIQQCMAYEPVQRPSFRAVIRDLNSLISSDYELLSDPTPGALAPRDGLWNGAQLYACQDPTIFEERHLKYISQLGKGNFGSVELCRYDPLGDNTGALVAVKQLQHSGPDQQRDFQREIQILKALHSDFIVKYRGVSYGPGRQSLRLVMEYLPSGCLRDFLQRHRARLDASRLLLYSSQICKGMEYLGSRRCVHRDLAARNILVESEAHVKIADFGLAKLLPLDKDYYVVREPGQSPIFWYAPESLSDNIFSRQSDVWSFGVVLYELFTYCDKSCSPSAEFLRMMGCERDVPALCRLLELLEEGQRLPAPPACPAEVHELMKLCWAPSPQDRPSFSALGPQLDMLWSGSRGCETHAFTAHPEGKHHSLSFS
Text: as §3

EGFR (pY1068) in A431 cell (WT), sequence (P00533 25-1210): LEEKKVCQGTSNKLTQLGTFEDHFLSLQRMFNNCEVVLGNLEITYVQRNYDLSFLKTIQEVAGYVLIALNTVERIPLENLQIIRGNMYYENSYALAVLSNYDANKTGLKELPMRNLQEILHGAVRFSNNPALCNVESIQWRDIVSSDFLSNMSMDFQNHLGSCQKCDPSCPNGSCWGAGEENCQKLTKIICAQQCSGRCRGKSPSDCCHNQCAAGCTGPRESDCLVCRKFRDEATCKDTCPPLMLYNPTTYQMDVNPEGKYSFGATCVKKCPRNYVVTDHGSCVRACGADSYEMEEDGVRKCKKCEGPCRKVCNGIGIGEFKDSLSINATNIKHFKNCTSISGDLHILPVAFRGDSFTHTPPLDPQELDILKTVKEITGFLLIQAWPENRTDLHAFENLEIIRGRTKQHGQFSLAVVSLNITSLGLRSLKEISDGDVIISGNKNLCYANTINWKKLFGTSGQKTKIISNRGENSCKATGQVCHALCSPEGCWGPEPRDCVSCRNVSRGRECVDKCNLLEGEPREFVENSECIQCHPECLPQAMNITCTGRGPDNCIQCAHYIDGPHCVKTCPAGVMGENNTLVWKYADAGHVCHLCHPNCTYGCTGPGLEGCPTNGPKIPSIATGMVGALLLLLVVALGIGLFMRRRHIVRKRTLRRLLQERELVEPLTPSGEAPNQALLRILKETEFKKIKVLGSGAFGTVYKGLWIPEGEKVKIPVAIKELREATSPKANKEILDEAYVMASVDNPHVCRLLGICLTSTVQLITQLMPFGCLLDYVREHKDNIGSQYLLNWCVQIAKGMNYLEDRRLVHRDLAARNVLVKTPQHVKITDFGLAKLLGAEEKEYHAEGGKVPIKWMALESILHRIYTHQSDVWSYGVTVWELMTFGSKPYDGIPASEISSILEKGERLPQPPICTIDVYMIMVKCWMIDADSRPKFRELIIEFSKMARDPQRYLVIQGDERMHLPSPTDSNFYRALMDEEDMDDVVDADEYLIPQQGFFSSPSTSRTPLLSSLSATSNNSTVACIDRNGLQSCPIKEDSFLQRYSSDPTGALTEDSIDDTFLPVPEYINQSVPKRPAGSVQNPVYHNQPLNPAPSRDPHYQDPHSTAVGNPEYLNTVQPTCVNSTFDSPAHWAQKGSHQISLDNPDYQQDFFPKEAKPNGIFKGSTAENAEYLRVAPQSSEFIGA
EGFR (pY1068) in H1975 cell (T790M/L858R), sequence (P00533 25-1210 T790M/L858R): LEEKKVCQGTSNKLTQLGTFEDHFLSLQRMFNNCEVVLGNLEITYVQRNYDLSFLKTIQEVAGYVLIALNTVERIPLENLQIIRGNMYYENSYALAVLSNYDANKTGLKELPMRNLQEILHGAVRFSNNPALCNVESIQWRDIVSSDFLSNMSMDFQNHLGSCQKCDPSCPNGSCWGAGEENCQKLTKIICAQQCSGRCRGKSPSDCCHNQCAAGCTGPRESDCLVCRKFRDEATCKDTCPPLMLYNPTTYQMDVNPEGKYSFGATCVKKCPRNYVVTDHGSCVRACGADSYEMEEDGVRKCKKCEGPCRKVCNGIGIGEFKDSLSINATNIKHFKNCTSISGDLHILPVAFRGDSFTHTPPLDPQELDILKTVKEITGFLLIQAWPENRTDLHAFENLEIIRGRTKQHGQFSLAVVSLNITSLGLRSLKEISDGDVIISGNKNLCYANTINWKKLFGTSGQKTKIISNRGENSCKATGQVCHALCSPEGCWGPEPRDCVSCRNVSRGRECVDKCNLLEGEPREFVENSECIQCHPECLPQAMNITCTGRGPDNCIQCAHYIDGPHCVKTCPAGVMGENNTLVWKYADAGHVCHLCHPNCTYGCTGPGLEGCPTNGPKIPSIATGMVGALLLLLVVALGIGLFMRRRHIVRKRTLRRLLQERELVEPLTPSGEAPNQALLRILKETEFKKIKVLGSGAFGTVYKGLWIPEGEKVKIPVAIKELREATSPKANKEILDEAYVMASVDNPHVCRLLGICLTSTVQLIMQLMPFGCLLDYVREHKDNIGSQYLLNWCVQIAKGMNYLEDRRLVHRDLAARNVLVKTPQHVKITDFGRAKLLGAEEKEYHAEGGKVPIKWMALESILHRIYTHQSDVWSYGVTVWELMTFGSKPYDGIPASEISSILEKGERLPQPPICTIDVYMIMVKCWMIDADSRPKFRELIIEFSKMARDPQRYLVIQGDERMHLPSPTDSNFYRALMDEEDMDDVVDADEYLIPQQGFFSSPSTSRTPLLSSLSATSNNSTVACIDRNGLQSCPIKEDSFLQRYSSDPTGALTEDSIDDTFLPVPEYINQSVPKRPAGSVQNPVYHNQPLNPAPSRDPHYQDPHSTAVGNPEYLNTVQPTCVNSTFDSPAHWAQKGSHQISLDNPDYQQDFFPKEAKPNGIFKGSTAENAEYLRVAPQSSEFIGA
human wt BTK, sequence (Q06187 whole entry): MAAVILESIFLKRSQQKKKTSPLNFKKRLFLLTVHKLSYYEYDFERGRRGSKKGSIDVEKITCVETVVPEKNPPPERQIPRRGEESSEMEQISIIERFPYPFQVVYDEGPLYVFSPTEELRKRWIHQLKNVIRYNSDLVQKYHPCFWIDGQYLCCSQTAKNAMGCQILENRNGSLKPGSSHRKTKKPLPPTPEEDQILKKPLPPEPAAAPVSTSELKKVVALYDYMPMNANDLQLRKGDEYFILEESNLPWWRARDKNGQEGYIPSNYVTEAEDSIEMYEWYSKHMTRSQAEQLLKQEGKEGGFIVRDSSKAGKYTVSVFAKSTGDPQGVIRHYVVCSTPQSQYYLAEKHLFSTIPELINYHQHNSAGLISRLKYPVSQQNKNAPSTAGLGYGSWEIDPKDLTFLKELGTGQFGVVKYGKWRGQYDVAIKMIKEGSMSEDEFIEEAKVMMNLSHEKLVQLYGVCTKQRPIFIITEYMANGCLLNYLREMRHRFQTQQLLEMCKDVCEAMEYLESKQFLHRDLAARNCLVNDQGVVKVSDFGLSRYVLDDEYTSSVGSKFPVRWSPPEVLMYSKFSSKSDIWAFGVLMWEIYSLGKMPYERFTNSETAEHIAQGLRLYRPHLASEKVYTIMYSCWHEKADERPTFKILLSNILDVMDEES
BTK, sequence (Q06187 whole entry): as above
JAK3, sequence (P52333 781-1124): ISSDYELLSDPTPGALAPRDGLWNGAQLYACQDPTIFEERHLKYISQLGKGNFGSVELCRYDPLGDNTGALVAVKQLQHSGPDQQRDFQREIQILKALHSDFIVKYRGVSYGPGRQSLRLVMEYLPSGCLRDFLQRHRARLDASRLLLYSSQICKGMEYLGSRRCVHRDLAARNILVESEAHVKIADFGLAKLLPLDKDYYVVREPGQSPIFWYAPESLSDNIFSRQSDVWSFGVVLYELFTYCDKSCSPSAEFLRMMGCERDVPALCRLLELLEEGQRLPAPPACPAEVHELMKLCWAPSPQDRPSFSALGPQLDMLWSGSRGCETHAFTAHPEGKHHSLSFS
JAK2, sequence (O60674 809-1132): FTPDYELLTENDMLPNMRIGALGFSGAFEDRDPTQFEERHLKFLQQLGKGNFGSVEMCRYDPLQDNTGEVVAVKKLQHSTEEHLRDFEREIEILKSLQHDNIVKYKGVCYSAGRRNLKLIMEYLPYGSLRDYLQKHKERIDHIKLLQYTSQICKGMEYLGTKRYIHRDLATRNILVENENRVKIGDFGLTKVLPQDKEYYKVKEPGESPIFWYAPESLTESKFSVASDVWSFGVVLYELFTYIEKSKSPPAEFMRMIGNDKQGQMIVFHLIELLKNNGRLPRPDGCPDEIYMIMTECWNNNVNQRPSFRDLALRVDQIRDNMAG

Row | Selectivity A431/H1975 [1] | IC50 [1] | IC50 [2] | SMILES | other results
1 | 232.91 | 0.0398 µM | 9.27 µM | C=CC(=O)Nc1cccc(Oc2nc(Nc3ccc(N4CCN(C)CC4)c(F)c3)nc3c2ccn3CO)c1 [Compound 6, N-(3-(2-(3-fluoro-4-(4-methylpiperazin-1-yl)phenylamino)-7-(hydroxymethyl)-7H-pyrrolo[2,3-d]pyrimidin-4-yloxy)phenyl)acrylamide] | 
2 | 92.95 | 0.0217 µM | 2.02 µM | C=CC(=O)Nc1cccc(Oc2nc(Nc3ccc(NC4CN(CCF)C4)cc3OC)nc3[nH]ccc23)c1 [Compound 34, N-(3-(2-(4-(1-(2-fluoroethyl)azetidin-3-ylamino)-2-methoxyphenylamino)-7H-pyrrolo[2,3-d]pyrimidin-4-yloxy)phenyl)acrylamide] | 
3 |  | 12.4 µM | > 20 µM | C=CC(=O)Nc1cccc(Oc2nc(Nc3ccc(N4CCN(C)CC4)cc3)nc3c2ccn3CCF)c1 [Compound 7, N-(3-(7-(2-fluoroethyl)-2-(4-(4-methylpiperazin-1-yl)phenylamino)-7H-pyrrolo[2,3-d]pyrimidin-4-yloxy)phenyl)acrylamide] | 
4 | 162.69 | 0.067 µM | 10.9 µM | C=CC(=O)Nc1cccc(Oc2nc(Nc3ccc(N4CCN(C)CC4)cc3)nc3c2ccn3CO)c1 [Compound 4, N-(3-((7-(hydroxymethyl)-2-((4-(4-methylpiperazin-1-yl)phenyl)amino)-7H-pyrrolo[2,3-d]pyrimidin-4-yl)oxy)phenyl)acrylamide] | 
5 |  |  |  | COc1cc2ncnc(Nc3ccc(F)c(Cl)c3)c2cc1OCCCN1CCOCC1 [Gefitinib] | T-C (days) at 300 mm^3 ([3]; 100 mg/kg po qd): >14 days; T/C (%) ([3]; 100 mg/kg po qd): 8.7%; Tumor Weight (g) at day 23(14) ([3]; 100 mg/kg po qd): 0.13 ± 0.03 g; Mouse Weight (g) at day 25(14) ([3]; 100 mg/kg po qd, Mean ± SEM): 21.56 ± 0.51 g; Tumor Size (mm^3) at day 25(14) ([3]; 100 mg/kg po qd, Mean ± SEM, Table 16): 154 ± 33 mm^3; Tumor volume ([3]; day 11, Mean ± SEM): 239.83 ± 23.30 mm^3; Tumor volume ([3]; day 18, Mean ± SEM): 139.70 ± 26.94 mm^3; Tumor volume ([3]; day 21, Mean ± SEM): 139.70 ± 22.07 mm^3; Tumor volume ([3]; day 25, Mean ± SEM): 154.79 ± 32.62 mm^3
6 | 300.00 | 0.001 µM | 0.3 µM | C=CC(=O)Nc1cccc(Oc2nc(Nc3ccc(N4CCN(C)CC4)nc3)nc3[nH]ccc23)c1 [Compound 2, N-(3-(2-(6-(4-methylpiperazin-1-yl)pyridin-3-ylamino)-7H-pyrrolo[2,3-d]pyrimidin-4-yloxy)phenyl)acrylamide] | IC50 (BTK): 0.362 nM; IC50 (JAK2): 2060 nM; IC50 (JAK3): 0.0365 nM; IC50 (human wt BTK): 0.012 µM and 0.059 µM; IC50 (human wt JAK3): 0.2 µM and 0.36 µM
7 | 113.17 | 0.243 µM | 27.5 µM | C=CC(=O)Nc1cccc(Oc2nc(Nc3ccc(N4CCN(C)CC4)nc3)nc3c2ccn3CO)c1 [Compound 5, N-(3-(7-(hydroxymethyl)-2-(6-(4-methylpiperazin-1-yl)pyridin-3-ylamino)-7H-pyrrolo[2,3-d]pyrimidin-4-yloxy)phenyl)acrylamide] | 
